Assays:
Carbonic anhydrase 1 = Carbonic anhydrase 1 (Homo sapiens, UniProt P00915)
Carbonic anhydrase 2 = Carbonic anhydrase 2 (Homo sapiens, UniProt P00918)
[1] = target: Carbonic anhydrase 5A, mitochondrial (Homo sapiens, UniProt P35218)
[2] = target: Carbonic anhydrase 5B, mitochondrial (Homo sapiens, UniProt Q9Y2D0)
Chain of Carbonic anhydrase 5B, mitochondrial (Q9Y2D0 whole entry): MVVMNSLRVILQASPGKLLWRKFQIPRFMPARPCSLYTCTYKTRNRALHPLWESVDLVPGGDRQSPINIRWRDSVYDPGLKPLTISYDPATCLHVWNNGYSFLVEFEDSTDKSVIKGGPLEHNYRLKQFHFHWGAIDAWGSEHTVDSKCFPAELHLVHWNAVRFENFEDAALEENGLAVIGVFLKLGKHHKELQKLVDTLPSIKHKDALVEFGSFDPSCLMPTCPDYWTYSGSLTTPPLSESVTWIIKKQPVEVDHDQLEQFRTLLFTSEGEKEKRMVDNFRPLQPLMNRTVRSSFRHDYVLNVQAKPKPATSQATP

Chain of Carbonic anhydrase 5A, mitochondrial (P35218 whole entry): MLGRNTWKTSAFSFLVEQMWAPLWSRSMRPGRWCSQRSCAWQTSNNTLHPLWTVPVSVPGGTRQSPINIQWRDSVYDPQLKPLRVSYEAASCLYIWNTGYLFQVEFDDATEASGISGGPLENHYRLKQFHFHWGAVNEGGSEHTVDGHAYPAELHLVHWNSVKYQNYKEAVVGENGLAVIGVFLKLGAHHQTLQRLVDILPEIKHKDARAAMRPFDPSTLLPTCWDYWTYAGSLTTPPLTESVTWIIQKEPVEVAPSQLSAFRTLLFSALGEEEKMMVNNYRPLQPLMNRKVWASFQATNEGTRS
Chain of Carbonic anhydrase 1 (P00915 whole entry): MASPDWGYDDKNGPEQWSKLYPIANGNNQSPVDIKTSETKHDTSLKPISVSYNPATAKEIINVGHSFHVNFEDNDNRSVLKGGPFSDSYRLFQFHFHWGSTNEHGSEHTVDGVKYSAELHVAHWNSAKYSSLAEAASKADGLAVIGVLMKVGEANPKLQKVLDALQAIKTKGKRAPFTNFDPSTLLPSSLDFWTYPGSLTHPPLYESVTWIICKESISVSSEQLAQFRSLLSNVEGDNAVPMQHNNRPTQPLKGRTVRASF

Ki (Carbonic anhydrase 1) [nM] | Ki (Carbonic anhydrase 2) [nM] | Ki [1] [nM] | Ki [2] [nM] | Structure (SMILES)
4600 | 40.3 | 14.2 | 11.2 | NS(=O)(=O)c1ccc(-n2cc(-c3ccc(F)cc3)nn2)cc1
2100 |  | 12.8 | 10.6 | Cc1ccc(-c2cn(-c3ccc(S(N)(=O)=O)cc3)nn2)cc1
5100 |  | 17.8 | 10.6 | NS(=O)(=O)c1ccc(-n2cc(-c3ccccc3)nn2)cc1
2200 | 8.4 | 10.6 | 51.8 | COc1ccc(-c2cn(-c3ccc(S(N)(=O)=O)cc3)nn2)cc1
